Data set [1] deals with advanced or metastatic cholangiocarcinoma with FGFR genetic alterations. Briefly: Phase II study of oral BGJ398 in advanced or metastatic cholangiocarcinoma, Patient 5010004 (RECIST v1.1). The class given is in vivo, human. As to conditions: Patient 5010004, oral erdafitinib prior to study treatment. The protocol: This is a multi-center, open label, single arm phase II study evaluating BGJ398 anti-tumor activity in advanced or metastatic cholangiocarcinoma patients with FGFR genetic alterations. 125 mg of oral, monotherapy BGJ398 is administered once daily for the first 3 weeks (21 days) of each 28-day cycle. The starting dose of 125 mg may be reduced to 100 mg, 75 mg, or 50 mg. The treatment period begins on Cycle 1, Day 1, and continues until disease progression, unacceptable toxicity, withdrawal of informed consent, or death. Patients are evaluated for tumor response radiographically every 8 weeks until disease progression or discontinuation from study using RECIST v1.1 criteria.
Adult patients with histologically or cytologically confirmed advanced or metastatic cholangiocarcinoma with FGFR2 gene fusions or translocations or other FGFR genetic alteration who have evidence of radiologic progression following a cisplatin- and gemcitabine-containing regimen for advanced disease or a gemcitabine-containing regimen for those who are considered intolerant to cisplatin are enrolled. Up to approximately 160 adult patients over age 18, both male and female are enrolled. Three cohorts of patients comprise the study population: • Cohort 1: ˜120 patients, 108 with FGFR2 gene fusions or translocations and 12 with other FGFR genetic alterations. • Cohort 2: ˜20 patients with FGFR genetic alterations other than FGFR2 gene fusions or translocations. • Cohort 3: Up to ˜20 patients with FGFR2 gene fusions or translocations who have received a prior FGFR inhibitor. Main Inclusion Criteria
Tumor response according to RECIST v1.1, and survival.
During treatment with infigratinib, the patient's response was determined by follow-up assessments conducted by a local investigator per RECIST v1.1.

Data set [2] can be described thus: Tolerability (body weight, clinical observations) in Vex-MR086M1 xenograft study. The data set is classed as in vivo, Mouse (Mus musculus). The protocol:
(§1) All animals were weighed at the same time as tumor size measurement. A Relative Body Weight loss (RBW loss) was considered as adverse effect of the treatment.
(§2) Mice were observed every day for physical appearance, behavior and clinical changes.
(§3) Relative Body Weight (RBW) is calculated for each measurement by dividing the body weight by the body weight at the start of treatment.
(§4) Individual Body weight loss percent (% BWL)=100−(BWX/BW0×100), where BWX is the BW at any day during the treatment and BW0 is the BW on the day of inclusion.
(§5) Mean Body weight loss percent (% BWL)=100−(mean BWX/mean BW0×100), where BWX is the mean BW at any day during the treatment and BW0 is the mean BW on the day of inclusion.

A short description of data set [3]: Tolerability (body weight, clinical observations) in UREx-MR2057PD-AR xenograft study. The class given is in vivo, Mouse (Mus musculus). Here is the method:
as §1, §2, §3, §4, §5

A further data set relates to cholangiocarcinoma. The settings on record: ABC-02 trial (Valle et al., 2010); cited from earlier work.

SMILES strings stand for the structures.

On to `COc1cc(OC)cc(N(CCNC(C)C)c2ccc3ncc(-c4cnn(C)c4)nc3c2)c1` [Erdafitinib, reference compound], for which, in data set [1], the best response entry was “progressive disease” and the “time to discontinuation due to radiological disease progression” value is recorded as “approximately 2 months”. For the same compound, in data set [2] (erdafitinib 15 mg/kg PO qdx21), the clinical observations entry is “No relevant observable signs were reported”, the “mean body weight loss” value is reported as “no mean body weight loss” and the “tolerability” value is given as “well tolerated except for 1 mouse”. Further, the “maximum individual body weight loss” value in data set [2] (erdafitinib 15 mg/kg PO qdx21, on D17) was determined as 10.6%. Besides, in data set [3] (erdafitinib 15 mg/kg PO qdx21), the clinical observations result is reported as “No relevant observable signs were reported”, the “maximum mean body weight loss” value was “no maximum mean body weight loss” and the “tolerability” value is on record as “well tolerated”. Besides, the “maximum individual body weight loss” value in data set [3] (erdafitinib 15 mg/kg PO qdx21, on D3) is reported as 4.9%.
For the compound `Nc1ccn([C@@H]2O[C@H](CO)[C@@H](O)C2(F)F)c(=O)n1` [gemcitabine], in the data set on cholangiocarcinoma, the median overall survival is listed as 8.1 months and the median progression-free survival is on record as 5.0 months.

Values taken from patent publication US12357632B2, “Methods of treating cholangiocarcinoma” (QED Therapeutics, Inc., priority 2019, dated 2025).
